Source: PubChem BioAssay (NCI)
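96-well plates; 48 h exposure; 5 concentrations. Endpoints by linear interpolation between flanking doses. Not reached: highest tested concentration assigned. TGI marks complete inhibition of growth.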

Experiments:
Assay in all cases: NCI-60 cell line screen, 48 h
NCI-H23 lung = tested on: NCI-H23 lung
786-0 renal = tested on: 786-0 renal
OVCAR-3 ovarian = tested on: OVCAR-3 ovarian
SF-539 CNS = tested on: SF-539 CNS
HL-60(TB) leukemia = tested on: HL-60(TB) leukemia
CCRF-CEM leukemia = tested on: CCRF-CEM leukemia
OVCAR-4 ovarian = tested on: OVCAR-4 ovarian
CAKI-1 renal = tested on: CAKI-1 renal
SW-620 colon = tested on: SW-620 colon
SF-268 CNS = tested on: SF-268 CNS
SK-MEL-28 melanoma = tested on: SK-MEL-28 melanoma
SF-295 CNS = tested on: SF-295 CNS
SK-MEL-5 melanoma = tested on: SK-MEL-5 melanoma
RXF 393 renal = tested on: RXF 393 renal
PC-3 prostate = tested on: PC-3 prostate
MDA-MB-231 breast = tested on: MDA-MB-231 breast
DU-145 prostate = tested on: DU-145 prostate
MDA-MB-435 = tested on: MDA-MB-435
BT-549 breast = tested on: BT-549 breast
MDA-N = tested on: MDA-N

Row | Compound | TGI (NCI-H23 lung) | TGI (786-0 renal) | TGI (OVCAR-3 ovarian) | TGI (SF-539 CNS) | TGI (HL-60(TB) leukemia) | TGI (CCRF-CEM leukemia) | TGI (OVCAR-4 ovarian) | TGI (CAKI-1 renal) | TGI (SW-620 colon) | TGI (SF-268 CNS) | TGI (SK-MEL-28 melanoma) | TGI (SF-295 CNS) | TGI (SK-MEL-5 melanoma) | TGI (RXF 393 renal) | TGI (PC-3 prostate) | TGI (MDA-MB-231 breast) | TGI (DU-145 prostate) | TGI (MDA-MB-435) | TGI (BT-549 breast) | TGI (MDA-N)
1 | CC(=O)Nc1ccc(C(=O)NN2C(=O)C(Cl)C2c2ccccc2)cc1 (centres undefined) | > 100 µM | > 100 µM | > 100 µM | > 100 µM | > 100 µM | > 100 µM | > 100 µM | > 100 µM | > 100 µM | > 100 µM | > 100 µM | > 100 µM | > 100 µM | > 100 µM | – | – | – | – | – | –
2 | O=[N+]([O-])c1nccn1CC(O)c1ccc(F)cc1 (centres undefined) | > 100 µM | > 100 µM | > 100 µM | > 100 µM | > 100 µM | > 100 µM | > 100 µM | > 100 µM | > 100 µM | > 100 µM | > 100 µM | > 100 µM | > 100 µM | > 100 µM | – | – | – | – | – | –
3 | O=C(c1ccc(O)cc1)C1c2c3c(cc(O)c2C(c2ccc(O)cc2)C1c1cc(O)cc(O)c1)OC(c1ccc(O)cc1)C3c1cc2c(cc1O)OC(c1ccc(O)cc1)C2c1cc(O)cc(O)c1 (centres undefined) | > 12.5 µM | > 12.5 µM | > 12.5 µM | > 12.5 µM | > 12.5 µM | > 12.5 µM | > 12.5 µM | > 12.5 µM | > 12.5 µM | > 12.5 µM | > 12.5 µM | – | > 12.5 µM | – | – | – | – | – | – | –
4 | O=[N+]([O-])c1ccccc1S(=O)(=O)c1cc(Cl)cc2c1NCCC2 | – | > 100 µM | > 100 µM | > 100 µM | > 100 µM | > 100 µM | > 100 µM | > 100 µM | > 100 µM | > 100 µM | > 100 µM | > 100 µM | 86.1 µM | > 100 µM | > 100 µM | > 100 µM | > 100 µM | > 100 µM | > 100 µM | –
5 | O=S(=O)(c1ccccc1)n1c2cc3cccnc3nc2c2cccnc21 | > 100 µM | > 100 µM | > 100 µM | – | 48.1 µM | > 100 µM | > 100 µM | > 100 µM | > 100 µM | > 100 µM | > 100 µM | > 100 µM | > 100 µM | 90.9 µM | > 100 µM | > 100 µM | – | 60 µM | > 100 µM | > 100 µM
6 | COCCOCc1nc(C#N)c(N)o1 | > 100 µM | > 100 µM | > 100 µM | > 100 µM | > 100 µM | > 100 µM | > 100 µM | > 100 µM | > 100 µM | > 100 µM | > 100 µM | > 100 µM | > 100 µM | > 100 µM | > 100 µM | > 100 µM | > 100 µM | > 100 µM | – | > 100 µM
7 | CC(C)(C)OC(=O)NCC(O)CNC(=O)OC(C)(C)C | > 100 µM | > 100 µM | > 100 µM | > 100 µM | > 100 µM | > 100 µM | > 100 µM | > 100 µM | > 100 µM | > 100 µM | > 100 µM | > 100 µM | > 100 µM | > 100 µM | > 100 µM | > 100 µM | > 100 µM | > 100 µM | > 100 µM | –
